experiment: Absorption/emission maxima of dyes in pH 7.4 PBS; assay type: physicochemical

Row | SMILES | λabs (nm) (in pH 7.4 PBS) | λem (nm) (in pH 7.4 PBS)
1 | N=c1ccc2c(-c3ccccc3C(=O)O)c3ccc(N)c(S(=O)(=O)NCCCCCC(=O)ON4C(=O)CCC4=O)c3oc-2c1 [compound 1] | 488 nm | 516
2 | COCCOCCNC(=O)c1ccc(-c2c3ccc(=N)c(S(=O)(=O)O)c-3oc3c(S(=O)(=O)NCCOCCOCCOCCOCCC(=O)ON4C(=O)CCC4=O)c(N)ccc23)c(C(=O)O)c1 [compound 5] | 488 nm | 516
3 | N=c1ccc2c(-c3ccccc3C(=O)O)c3ccc(N)c(S(=O)(=O)NCCOCCOCCOCCOCCOCCOCCOCCOCCC(=O)ON4C(=O)CCC4=O)c3oc-2c1S(=O)(=O)O [compound 4] | 488 nm | 516

Next, values leading:

Row | λabs (nm) (in pH 7.4 PBS) | λem (nm) (in pH 7.4 PBS) | SMILES
4 | 488 nm | 516 | N=c1ccc2c(-c3ccccc3C(=O)O)c3ccc(N)c(S(=O)(=O)NCCOCCOCCOCCOCCOCCOCCOCCN)c3oc-2c1S(=O)(=O)O [compound 3]
5 | 529/ nm | – | N=c1ccc2c(-c3ccccc3C(=O)O)c3ccc(N)cc3oc-2c1S(=O)(=O)NCCCCCC(=O)ON1C(=O)CCC1=O [Compound No. 9]

Source: US9006437B2, “Xanthene dyes comprising a sulfonamide group” (Biotium, Inc., priority 2009, dated 2015)
